This experiment deals with T1, hFXR (Homo sapiens, UniProt Q96RI1).
T1 construct: expressed in transfected cells; host or cells: CV-1 cells
T1 sequence (Q96RI1 1-486): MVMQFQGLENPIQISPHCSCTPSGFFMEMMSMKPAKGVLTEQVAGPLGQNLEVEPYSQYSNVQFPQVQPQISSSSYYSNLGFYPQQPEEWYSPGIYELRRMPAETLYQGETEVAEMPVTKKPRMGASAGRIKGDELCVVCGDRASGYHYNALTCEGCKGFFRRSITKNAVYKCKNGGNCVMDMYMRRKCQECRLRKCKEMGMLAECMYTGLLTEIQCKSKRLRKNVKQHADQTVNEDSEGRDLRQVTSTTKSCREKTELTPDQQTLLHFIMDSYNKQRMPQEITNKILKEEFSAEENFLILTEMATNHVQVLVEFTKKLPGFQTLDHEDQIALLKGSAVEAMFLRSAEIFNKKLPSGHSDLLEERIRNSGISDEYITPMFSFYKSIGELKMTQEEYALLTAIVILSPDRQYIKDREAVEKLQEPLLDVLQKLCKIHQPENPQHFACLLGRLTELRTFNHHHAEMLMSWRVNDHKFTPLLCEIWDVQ
T1 sequence (P19793 1-462 partner): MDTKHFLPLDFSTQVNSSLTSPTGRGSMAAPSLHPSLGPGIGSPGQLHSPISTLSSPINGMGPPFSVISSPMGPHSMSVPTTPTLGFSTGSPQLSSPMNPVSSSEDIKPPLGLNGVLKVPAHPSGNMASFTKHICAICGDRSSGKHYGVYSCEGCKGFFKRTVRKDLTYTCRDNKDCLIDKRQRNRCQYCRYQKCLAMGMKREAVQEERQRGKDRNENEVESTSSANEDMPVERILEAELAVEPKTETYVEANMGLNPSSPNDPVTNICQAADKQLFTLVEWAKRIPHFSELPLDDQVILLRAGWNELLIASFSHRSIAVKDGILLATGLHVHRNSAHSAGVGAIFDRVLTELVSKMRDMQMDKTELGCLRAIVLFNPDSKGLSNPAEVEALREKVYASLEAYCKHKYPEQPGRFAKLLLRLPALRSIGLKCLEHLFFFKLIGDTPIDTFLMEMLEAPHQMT
The experiment in a line: In Vitro FXR Assay (TK): TK-ECRE-luc reporter in transfected CV-1 cells. To be noted: 18 hrs, luminescence, maximum efficacy of <25% of the Fexarmine control classified as '+'. Format: cell-based. In outline:
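Cells are seeded in charcoal double-stripped FBS medium, transfected overnight with FXR/RXR expression and ECRE-driven luciferase reporter plasmids, then treated with serially diluted compounds for 18 h. Lysates are measured for luciferase light output.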

SMILES strings stand for the structures.

As to `COc1ccc([C@H]2CC[C@H](CN(c3cccc(-c4coc(C5CC5)n4)c3)C(=O)[C@H]3CC[C@H](CC(=O)O)CC3)CC2)nc1C#N` [Compound 21.13, 2-(trans-4-(((trans-4-(6-Cyano-5-methoxypyridin-2-yl)cyclohexyl)methyl)(3-(2-cyclopropyloxazol-4-yl)phenyl)carbamoyl)cyclohexyl)acetic acid], the concentration giving a half-maximal response (EC50) was at most 250 nM.
In the case of `CNC(=O)N[C@H]1CC[C@H](C(=O)N(C[C@H]2CC[C@H](c3ccc(OC)c(C)c3)CC2)c2cccc(-c3cnc(C4CC4)s3)c2)CC1` [Compound 26.36, trans-N-(3-(2-Cyclopropylthiazol-5-yl)phenyl)-N-((trans-4-(4-methoxy-3-methylphenyl)cyclohexyl)methyl)-4-(3-methylureido)cyclohexanecarboxamide] it was at most 250 nM; in that of `COc1ccc([C@H]2CC[C@H](CN(c3cc(-c4coc(C5CC5)n4)ccn3)C(=O)[C@H]3CC[C@H](OC(=O)NC4CCN(C)CC4)CC3)CC2)nc1C` [Compound 6.79, trans-4-((4-(2-Cyclopropyloxazol-4-yl)pyridine-2-yl)((trans-4-(5-methoxy-6-methylpyridin-2-yl)cyclohexyl)methyl)carbamoyl)cyclohexyl (1-methylpiperidin-4-yl)carbamate], at most 250 nM; in that of `COc1ccc([C@H]2CC[C@H](CN(c3cc(-c4coc(C5CC5)n4)ccn3)C(=O)[C@H]3CC[C@H](OC(=O)N4CC(CC(=O)O)C4)CC3)CC2)nc1C` [Compound 7.86, 2-(1-(((trans-4-((4-(2-Cyclopropyloxazol-4-yl)pyridine-2-yl) ((trans-4-(5-methoxy-6-methylpyridin-2-yl)cyclohexyl)methyl)carbamoyl)cyclohexyl)oxy)carbonyl)azetidin-3-yl)acetic acid], 250 to 1000 nM.
`CNC(=O)O[C@H]1CC[C@H](C(=O)N(C[C@H]2CC[C@H](c3ccc(OC)c(C)n3)CC2)c2cccc(-c3cnc(C(C)C)s3)c2)CC1` [Compound 5.08, trans-4-((3-(2-Isopropylthiazol-5-yl)phenyl)((trans-4-(5-methoxy-6-methylpyridin-2-yl)cyclohexyl)methyl)carbamoyl)cyclohexyl methylcarbamate]: the EC50 is at most 250 nM.
In the case of `COC(=O)NCC(=O)N[C@H]1CC[C@H](C(=O)N(C[C@H]2CC[C@H](c3ccc(OC)c(C)c3)CC2)c2cccc(-c3cnn(C4CC4)c3)c2)CC1` [Compound 31, Methyl (2-((trans-4-((03-(1-cyclopropyl-1H-pyrazol-4-yl)phenyl)((trans-4-(4-methoxy-3-methylphenyl)cyclohexyl)methyl)carbamoyl)cyclohexyl)amino)-2-oxoethyl)carbamate] it was at most 250 nM; in that of `COc1ccc([C@H]2CC[C@H](CN(c3cccc(-c4coc(C5CC5)n4)c3)C(=O)[C@H]3CC[C@H](OC(=O)NCCO)CC3)CC2)nc1C` [Compound 6.50, trans-4-((3-(2-Cyclopropyloxazol-4-yl)phenyl)((trans-4-(5-methoxy-6-methylpyridin-2-yl)cyclohexyl)methyl)carbamoyl)cyclohexyl (2-hydroxyethyl)carbamate], at most 250 nM.
Compound `COc1ccc([C@H]2CC[C@H](CN(c3cccc(-c4cnn(C5CC5)c4)c3)C(=O)[C@H]3CC[C@H](OC(=O)N4CC(C(=O)O)C4)CC3)CC2)cc1C` [Compound 7.35, 1-(((trans-4-((3-(1-Cyclopropyl-1H-pyrazol-4-yl)phenyl)((trans-4-(4-methoxy-3-methylphenyl)cyclohexyl)methyl)carbamoyl)cyclohexyl)oxy)carbonyl)azetidine-3-carboxylic acid] registered an EC50 of at most 250 nM.
`COc1ccc([C@H]2CC[C@H](CN(c3cccc(-c4cnn(C5CC5)c4)c3)C(=O)[C@H]3CC[C@H](OC(=O)NCCO)CC3)CC2)cc1C` [Compound 4, trans-4-((3-(1-Cyclopropyl-1H-pyrazol-4-yl)phenyl)((trans-4-(4-methoxy-3-methylphenyl)cyclohexyl)methyl)carbamoyl)cyclohexyl (2-hydroxyethyl)carbamate] registered an EC50 of at most 250 nM.
For the compound `COc1ccc([C@H]2CC[C@H](CN(c3cccc(-c4cnc(C5CC5)s4)c3)C(=O)[C@H]3CC[C@H](C(=O)O)CC3)CC2)cc1C` [Compound 17, trans-4-((3-(2-Cyclopropylthiazol-5-yl)phenyl)((trans-4-(4-methoxy-3-methylphenyl)cyclohexyl)methyl)carbamoyl)cyclohexanecarboxylic acid], the EC50 is at most 250 nM.
Take `COc1ccc([C@H]2CC[C@H](CN(c3cccc(-c4cnn(C5CC5)c4)c3)C(=O)[C@H]3CC[C@H](OC(=O)NCCNC(C)=O)CC3)CC2)cc1C` [Compound 26.23, trans-4-((3-(1-Cyclopropyl-1H-pyrazol-4-yl)phenyl)((trans-4-(4-methoxy-3-methylphenyl)cyclohexyl)methyl)carbamoyl)cyclohexyl (2-acetamidoethyl)carbamate]: the EC50 was at most 250 nM.
With `COC(=O)CNC(=O)O[C@H]1CC[C@H](C(=O)N(C[C@H]2CC[C@H](c3ccc(OC)c(C)c3)CC2)c2cccc(-c3cnn(C4CC4)c3)c2)CC1` [Compound 7.17, Methyl 2-((((trans-4-((3-(1-cyclopropyl-1H-pyrazol-4-yl)phenyl)((trans-4-(4-methoxy-3-methylphenyl)cyclohexyl)methyl)carbamoyl)cyclohexyl)oxy)carbonyl)amino)acetate], the EC50 was at most 250 nM.
Consider `CNC(=O)O[C@H]1CC[C@H](C(=O)N(C[C@H]2CC[C@H](c3ccc(OC)c(C)n3)CC2)c2cc(-c3cnc(C4CC4)s3)ccn2)CC1` [Compound 5.03, trans-4-((4-(2-Cyclopropylthiazol-5-yl)pyridin-2-yl)((trans-4-(5-methoxy-6-methylpyridin-2-yl)cyclohexyl)methyl)carbamoyl)cyclohexyl methylcarbamate], for which the EC50 was at most 250 nM.
In the case of `COc1ccc([C@H]2CC[C@H](CN(c3cc(-c4coc(C5CC5)n4)ccn3)C(=O)[C@H]3CC[C@H](OC(=O)N4CC(O)C4)CC3)CC2)cc1C#N` [Compound 7.69, trans-4-(((trans-4-(3-Cyano-4-methoxyphenyl)cyclohexyl)methyl)(4-(2-cyclopropyloxazol-4-yl)pyridine-2-yl)carbamoyl)cyclohexyl 3-hydroxyazetidine-1-carboxylate] it was at most 250 nM; in that of `COc1ccc([C@H]2CC[C@H](CN(c3cccc(-c4cnc(C5CC5)s4)c3)C(=O)[C@H]3CC[C@H](NC(=O)C4COC4)CC3)CC2)cc1C` [Compound 27.02, N-(trans-4-((3-(2-Cyclopropylthiazol-5-yl)phenyl)((trans-4-(4-methoxy-3-methylphenyl)cyclohexyl)methyl)carbamoyl)cyclohexyl)oxetane-3-carboxamide], at most 250 nM; in that of `CNC(=O)O[C@H]1CC[C@H](C(=O)N(C[C@H]2CC[C@H](c3ccc(OC)c(C)c3)CC2)c2cccc(-c3cc(C4CC4)ns3)c2)CC1` [Compound 2, trans-4-((3-(3-Cyclopropylisothiazol-5-yl)phenyl)((trans-4-(4-methoxy-3-methylphenyl)cyclohexyl)methyl)carbamoyl)cyclohexyl methylcarbamate], at most 250 nM.
In turn, `COc1ccc([C@H]2CC[C@H](CN(c3cc(-c4coc(C(C)C)n4)ccn3)C(=O)[C@H]3CC[C@H](CC(=O)O)CC3)CC2)cc1C` [Compound 21.09, 2-(trans-4-((4-(2-Isopropyloxazol-4-yl)pyridin-2-yl)((trans-4-(4-methoxy-3-methylphenyl)cyclohexyl)methyl)carbamoyl)cyclohexyl)acetic acid] gave an EC50 of at most 250 nM.
The compound `CN(C)c1ccc(C23CCC(CN(c4cccc(-c5cnc(C6CC6)s5)c4)C(=O)[C@H]4CC[C@H](OC(=O)NCCO)CC4)(CC2)CC3)cn1` [Compound 4.03, 4-((3-(2-Cyclopropylthiazol-5-yl)phenyl)((4-(6-(dimethylamino)pyridin-3-yl)bicyclo[2.2.2]octan-1-yl)methyl)carbamoyl)cyclohexyl (2-hydroxyethyl)trans-carbamate] had an EC50 of at most 250 nM.
`COc1ncc([C@H]2CC[C@H](CN(c3cccc(-c4cnn(C5CC5)c4)c3)C(=O)[C@H]3CC[C@H](OC(=O)N4CC(O)C4)CC3)CC2)cc1C` [Compound 7.25, trans-4-((3-(1-Cyclopropyl-1H-pyrazol-4-yl)phenyl)((trans-4-(6-methoxy-5-methylpyridin-3-yl)cyclohexyl)methyl)carbamoyl)cyclohexyl 3-hydroxyazetidine-1-carboxylate] displayed an EC50 of at most 250 nM.

The record behind these values is patent publication US20220089575A1, “FARNESOID X RECEPTOR AGONISTS AND USES THEREOF” (Metacrine, Inc., priority 2017, published 2022).
